Laboratory results as given in patent US5631248A, “Supersaturated topical compositions” (priority 1992, dated 1997).

Assay: Saturated concentration of hydrocortisone acetate in propylene glycol
Assay type: physicochemical
Settings: saturated solution in propylene glycol (Sample A)

concentration of saturated solution in propylene glycol: 0.10 % w/w
Structure (SMILES): CC(=O)OCC(=O)[C@@]1(O)CC[C@H]2[C@@H]3CCC4=CC(=O)CC[C@]4(C)[C@H]3[C@@H](O)C[C@@]21C [hydrocortisone acetate]
